Where two headings read alike, the source gives them in different places.
Assays:
[1] = test system: Peronospora parasitica; experiment: In vivo preventive test on Peronospora parasitica (Crucifer downy mildew) on cabbage; details: Hyaloperonospora parasitica, 120 h, sprayed 72 hours before inoculation, evaluated 5 days after inoculation, read-out: efficacy; for pest or weed control at 125 ppm: 125 ppm of active ingredient; for pest or weed control at 500 ppm: 500 ppm of active ingredient; for pest or weed control at 31 ppm: 31 ppm of active ingredient
Protocol: (§1) The tested active ingredients were prepared by homogenization in a mixture of acetone/Dimethyl sulfoxide/Tween®, and then diluted with water to obtain the desired active material concentration.
(§2) The young plants of cabbage were treated by spraying the active ingredient prepared as described above. Control plants were treated only with an aqueous solution of acetone/Dimethyl sulfoxide/Tween®.
After 72 hours, the plants were contaminated by spraying the leaves with an aqueous suspension of Peronospora parasitica spores. The contaminated cabbage plants were incubated for 5 days at 20° C. and at 100% relative humidity.
The test was evaluated 5 days after the inoculation. 0% means an efficacy which corresponds to that of the control plants while an efficacy of 100% means that no disease was observed.

[2] = test system: Xanthomonas campestris pv. campestris; experiment: In vivo preventive test on Xanthomonas campestris pv. campestris (black rot on cabbage); details: Xanthomonas campestris, sprayed 72 hours before inoculation, evaluated 8 or 10 days after inoculation, read-out: efficacy; for pest or weed control at 31 ppm: 31 ppm of active ingredient; for pest or weed control at 500 ppm: 500 ppm of active ingredient
Protocol: as §1, §2
After 72 hours, the plants were contaminated by spraying the leaves with an aqueous bacteria suspension of Xanthomonas campestris pv. campestris. The contaminated cabbage plants were incubated for 8 or 10 days at 27° C. at 95% relative humidity.
The test was evaluated 8 or 10 days after the inoculation. 0% means an efficacy which corresponds to that of the control plants while an efficacy of 100% means that no disease was observed.

[3] = test system: Colletotrichum lindemuthianum; experiment: In vivo preventive test on Colletotrichum lindemuthianum (Anthracnose on bean); details: sprayed 72 hours before inoculation, evaluated 6 days after inoculation; for pest or weed control at 31 ppm / pest or weed control at 125 ppm / pest or weed control at 500 ppm: Colletotrichum lindemuthianum, 144 h, read-out: efficacy; for pest or weed control at 31 ppm: 31 ppm of active ingredient; for pest or weed control at 125 ppm: 125 ppm of active ingredient
Protocol: as §1
(§3) The young plants of bean were treated by spraying the active ingredient prepared as described above. Control plants were treated only with an aqueous solution of acetone/Dimethyl sulfoxide/Tween®.
After 72 hours, the plants were contaminated by spraying the leaves with an aqueous suspension of Colletotrichum lindemuthianum spores. The contaminated bean plants were incubated for 24 hours at 20° C. and at 100% relative humidity and then for 5 days at 20° C. and at 90% relative humidity.
The test was evaluated 6 days after the inoculation. 0% means an efficacy which corresponds to that of the control plants while an efficacy of 100% means that no disease was observed.

[4] = test system: Uromyces appendiculatus; experiment: In vivo preventive test on Uromyces appendiculatus (bean rust); details: 240 h, sprayed 72 hours before inoculation, evaluated 10 days after inoculation, read-out: efficacy; for pest or weed control at 31 ppm: 31 ppm of active ingredient; for pest or weed control at 500 ppm: 500 ppm of active ingredient; for pest or weed control at 125 ppm: 125 ppm of active ingredient
Protocol: as §1, §3
After 72 hours, the plants were contaminated by spraying the leaves with an aqueous suspension of Uromyces appendiculatus spores. The contaminated bean plants were incubated for 24 hours at 20° C. and at 100% relative humidity and then for 9 days at 20° C. and at 70-80% relative humidity.
The test was evaluated 10 days after the inoculation. 0% means an efficacy which corresponds to that of the control plants while an efficacy of 100% means that no disease was observed.

[5] = test system: Alternaria alternata; experiment: Alternaria alternata in vitro cell test; assay type: cell-based; details: 120 h, 5 days incubation, read-out: efficacy (inhibition of fungal growth; no direct activity); for inhibition at 5 ppm: 5 ppm of active ingredient; for inhibition at 20 ppm: 20 ppm of active ingredient
Protocol: (§4) • Solvent: DMSO • Culture medium: 14.6 g anhydrous D-glucose (VWR), 7.1 g Mycological Peptone (Oxoid), 1.4 g granulated Yeast Extract (Merck), QSP 1 liter • Inoculum: spores suspension Fungicides were solubilized in DMSO and the solution used to prepare the required range of concentrations. The final concentration of DMSO used in the assay was ≤[…]1%. A spore suspension of A. alternata was prepared and diluted to the desired spore density. Fungicides were evaluated for their ability to inhibit spore germination and mycelium growth in liquid culture assay. The compounds were added in the desired concentration to the culture medium with spores. After 5 days incubation, fungi-toxicity of compounds was determined by spectrometric measurement of mycelium growth. Inhibition of fungal growth was determined by comparing the absorbance values in wells containing the fungicides with the absorbance in control wells without fungicides.

[6] = LogP by HPLC on reversed phase columns (EEC directive 79/831 Annex V.A8); assay type: physicochemical; details: reversed phase HPLC columns
Protocol: [table] If more than one Log P value is available within the same method, all the values are given and separated by “+”. Calibration was done with straight-chain alkan2-ones (with 3 to 16 carbon atoms) with known Log P values (measurement of Log P values using retention times with linear interpolation between successive alkanones). Lambda-max-values were determined using UV-spectra from 200 nm to 400 nm and the peak values of the chromatographic signals.

[7] = test system: Pseudomonas syringae pv. tomato; experiment: Pseudomonas syringae pv. tomato in vitro cell test; assay type: cell-based; details: 20 ppm of active ingredient, 24 h of incubation, read-out: efficacy (inhibition of bacteria growth; no direct activity)
Protocol: (§5) • Solvent: DMSO • Culture medium: LB broth medium (Luria Broth Miller) Sigma • Inoculum: bacteria suspension Compounds were solubilized in DMSO and the solution used to prepare the required range of concentrations. The final concentration of DMSO used in the assay was ≤1%. Inoculum was prepared from a pre-culture of bacteria grown in liquid medium and diluted to the desired optical density (OD). Compounds were evaluated for their ability to inhibit bacteria growth in liquid culture assay. The compounds were added in the desired concentrations to culture medium containing the bacteria suspension. After 24 h of incubation, the efficacy of compounds was determined by spectrometric measurement of bacteria growth. Inhibition was determined by comparing the absorbance values in wells containing the compounds with the absorbance in control wells without active ingredients.

[8] = test system: Colletotrichum lindemuthianum; experiment: Colletotrichum lindemuthianum in vitro cell test; assay type: cell-based; details: 144 h, 6 days incubation, read-out: efficacy (inhibition of fungal growth; no direct activity); for inhibition at 5 ppm: 5 ppm of active ingredient; for inhibition at 20 ppm: 20 ppm of active ingredient
Protocol: as §4, with “of C. lindemuthianum” for “of A. alternata”, “inhibit spores” for “inhibit spore”, “After 6” for “After 5”

[9] = test system: Xanthomonas campestris pv. campestris; experiment: Xanthomonas campestris pv. campestris in vitro cell test; assay type: cell-based; details: 24 h of incubation, read-out: efficacy (inhibition of bacteria growth; no direct activity); for inhibition at 5 ppm: 5 ppm of active ingredient; for inhibition at 20 ppm: 20 ppm of active ingredient
Protocol: as §5

[10] = test system: salicylate responsive promoter sequence of the PR1 (pathogenesis-related protein I) gene (AT2G14610); experiment: Induction of defense gene expression in Arabidopsis thaliana (PR1 promoter-GFP reporter plants); assay type: in vivo; details: 72 h, 3rd day after spraying, mock treated leaves set as 1.00, read-out: relative fluorescence value
Protocol: Arabidopsis thaliana reporter plants containing the coding sequence of a green fluorescent protein (GFP) linked to the salicylate responsive promoter sequence of the PR1 (pathogenesis-related protein I) gene (AT2G14610) were grown for five days and then sprayed with compounds. On the 3rd day after spraying, plant fluorescence was assessed with a MacroFluo instrument from Leica Microsystems (Wetzlar, Germany). Fluorescences were quantified with the Meta-Morph Microscopy Automation & Image Analysis Software (Molecular Devices, Sunnyvale, Calif., United States). Background fluorescence in mock treated leaves was set as 1.00.

[11] = preparation examples, method not indicated, read-out: Log P

Row | SMILES | pest or weed control at 125 ppm [1] | pest or weed control at 500 ppm [1] | pest or weed control at 500 ppm [4] | inhibition at 5 ppm [5] | chromatographic logP ([6]; method [a]) | inhibition at 20 ppm [7] | inhibition at 5 ppm [8] | inhibition at 5 ppm [9] | inhibition at 20 ppm [9] | other results
1 | O=C(NC1(C(=O)O)CC1)c1cc(Cl)c(Cl)s1 [CMP3, reference compound] | 0% | 0% | – | – | – | – | – | – | – | pest or weed control at 31 ppm [2]: < 40%; pest or weed control at 500 ppm [2]: 0%
2 | COC(=O)C1(NC(=O)c2cc(Cl)c(Cl)s2)CC1 [CMP4, reference compound] | 0% | 0% | – | – | – | – | – | – | – | pest or weed control at 31 ppm [2]: 0%; pest or weed control at 500 ppm [2]: 0%; pest or weed control at 31 ppm [3]: 0%; pest or weed control at 125 ppm [3]: < 40%; pest or weed control at 31 ppm [4]: < 40%
3 | COC(=O)C1(NC(=O)c2cc(Br)c(Br)s2)CC1 [CMP5, reference compound] | < 40% | – | < 20% | – | – | – | – | – | – | pest or weed control at 125 ppm [3]: 0%; pest or weed control at 31 ppm [4]: 0%
4 | CCOC(=O)C1(NC(=O)c2cc(Cl)c(Cl)s2)CC1 [CMP6, reference compound] | 0% | 0% | – | – | – | – | – | – | – | pest or weed control at 31 ppm [3]: < 40%
5 | O=C(NC(C(=O)O)C1CC1)c1sc(Br)c(Br)c1Br (stereo not drawn) [CMP8, reference compound] | – | – | – | – | – | – | – | – | – | pest or weed control at 500 ppm [2]: < 10%
6 | CCOC(=O)CN(C)C(=O)c1sc(Br)c(Br)c1Br [CMP15, reference compound] | < 30% | – | – | – | – | – | – | – | – | pest or weed control at 500 ppm ([3]; 500 ppm of active ingredient): < 40%
7 | COC(=O)CC[C@H](NC(=O)c1sc(Br)c(Br)c1C)C(=O)OC [CMP16, reference compound] | – | – | – | – | – | – | – | – | – | efficacy ([3]; 500 ppm of active ingredient): 38%
8 | COC(=O)C1(NC(=O)c2sc(Br)c(Br)c2C)CCC(F)(F)CC1 [I.005] | – | – | 90 to 100% | ≤ 30% | 3.83 | ≤ 30% | ≤ 30% | ≤ 30% | ≤ 30% | inhibition at 20 ppm [5]: ≤ 30%
9 | COC(=O)C1(NC(=O)c2sc(Br)c(Br)c2C)CSC1 [I.015] | 90 to 100% | 90 to 100% | 90 to 100% | ≤ 30% | 3.31 | ≤ 30% | ≤ 30% | ≤ 30% | ≤ 30% | pest or weed control at 31 ppm [1]: 90 to 100%; pest or weed control at 31 ppm [4]: 90 to 100%; inhibition at 20 ppm [8]: ≤ 30%; fold induction at 75 ppm [10]: > 2; fold induction at 300 ppm [10]: > 2
10 | CCOC(=O)C1(NC(=O)CNC(=O)c2sc(Br)c(Br)c2C)CC1 [I.024, ethyl 1-({N-[(4,5-dibromo-3-methyl-2-thienyl)carbonyl]glycyl}amino)cyclopropanecarboxylate] | – | – | – | ≤ 30% | – | ≤ 30% | ≤ 30% | ≤ 30% | ≤ 30% | inhibition at 20 ppm [5]: ≤ 30%; chromatographic logP [6, 11]: 2.55; inhibition at 20 ppm [8]: ≤ 30%; fold induction at 75 ppm [10]: > 2
11 | CCOC(=O)CN(C)C(=O)c1sc(Br)c(Br)c1C [I.056] | 80 to 89% | 90 to 100% | – | ≤ 30% | 3.23 | ≤ 30% | ≤ 30% | ≤ 30% | ≤ 30% | inhibition at 20 ppm [5]: ≤ 30%
12 | CONC(=O)[C@@H](NC(=O)c1sc(Br)c(Br)c1C)C(C)C [I.074, N^2-[(4,5-dibromo-3-methyl-2-thienyl)carbonyl]-N-methoxyvalinamide] | – | – | – | ≤ 30% | – | ≤ 30% | ≤ 30% | ≤ 30% | ≤ 30% | inhibition at 20 ppm [5]: ≤ 30%; chromatographic logP [6, 11]: 2.77; inhibition at 20 ppm [8]: ≤ 30%; fold induction at 300 ppm [10]: > 2
13 | COC(=O)C1(NC(=O)c2sc(Br)c(Br)c2C)CCC1 [I.131] | 90 to 100% | 90 to 100% | 90 to 100% | – | 3.4 | – | – | – | – | pest or weed control at 31 ppm [1]: 80 to 89%; pest or weed control at 500 ppm ([3]; 500 ppm of active ingredient): 80 to 89%; pest or weed control at 125 ppm [4]: 90 to 100%; fold induction at 75 ppm [10]: > 2; fold induction at 300 ppm [10]: > 2
14 | CCOC(=O)C1(NC(=O)c2sc(Br)c(Br)c2C)CCC1 [I.132] | 80 to 89% | 90 to 100% | 90 to 100% | – | 3.81 | – | – | – | – | pest or weed control at 31 ppm [1]: 80 to 89%; pest or weed control at 500 ppm ([3]; 500 ppm of active ingredient): 70 to 79%; pest or weed control at 31 ppm [4]: 90 to 100%; pest or weed control at 125 ppm [4]: 90 to 100%; fold induction at 75 ppm [10]: > 2; fold induction at 300 ppm [10]: > 2

— US12509437B2, “Substituted thiophene carboxamides and derivatives thereof as microbicides” (Bayer Aktiengesellschaft, priority 2019, dated 2025)
